Experimental data from patent US20250049791A1, “Synthesis of MEK7 Inhibitors and methods of Use Thereof” (Northwestern University, priority 2023, published 2025).
Read-outs that look alike come from different tables or passages of the source.

Target: T1, recombinant active full-length human MEK7 (Homo sapiens, UniProt O14733)
T1 construct: recombinant active full-length human MEK7 (Carna Biosciences); purchased Carna Biosciences
T1 sequence (O14733 1-419): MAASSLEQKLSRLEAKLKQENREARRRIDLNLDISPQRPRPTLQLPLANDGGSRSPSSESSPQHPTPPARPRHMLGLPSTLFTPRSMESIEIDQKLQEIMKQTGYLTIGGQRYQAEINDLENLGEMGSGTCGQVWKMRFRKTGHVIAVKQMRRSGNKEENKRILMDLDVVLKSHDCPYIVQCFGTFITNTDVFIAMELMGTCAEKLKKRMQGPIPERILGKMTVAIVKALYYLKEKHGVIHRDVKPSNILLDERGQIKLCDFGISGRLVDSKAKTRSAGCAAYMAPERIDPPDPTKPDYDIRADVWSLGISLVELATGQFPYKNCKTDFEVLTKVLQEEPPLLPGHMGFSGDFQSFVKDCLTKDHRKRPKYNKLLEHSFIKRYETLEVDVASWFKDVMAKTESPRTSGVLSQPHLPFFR
Experiment: ADP-Glo kinase activity assay, MEK7 with JNK1 substrate
Assay type: biochemical
Settings: for in vitro activity against MAP2K7, in words: ADP-Glo assay, comparison within the series
Protocol: Procedure for a 5 μL Kinase reaction using the ADP-Glo Kinase Assay Kit from Promega. Staurosporine was used as the positive control, and DMSO (vehicle) was employed as the negative control. Activity of recombinant active full-length human MEK7 (Carna Biosciences) was measured with recombinant full-length human substrate JNK1 (MAPK8). Using a Mantis, a mixture of MEK7 and JNK1 was dispensed into a 384-well low volume white Proxiplate. For each well, 4 ng of MEK7 and 600 ng of JNK1 in kinase buffer (CST) were used, accounting for 1 μL of this mixture per well. Inhibitor was prepared in a DMSO solution (40 mM). A dose-response dilution was performed in a 384-well Echo transfer plate. Using an Echo Access, 10 nL of each solution was dispensed into the same 384-well low volume white Proxiplate as above. This mixture was allowed to incubate for 30 minutes at room temperature. Using a Mantis, 1 uL of an 8 μM ATP solution was added to each well, and the plate was allowed to incubate for another 1 hour at room temperature. Using the Mantis again, 4 μL of ADP Glo Reagent was dispensed into each well, and the plate was allowed to incubate for 45 min at room temperature. Finally, 9 μL of Kinase Detection Reagent was added manually to each well, and the plate was allowed to incubate for 45 minutes at room temperature. Luminescence was read on a Synergy Neo2 Plate Reader with filter cubes 3 and 114. Integration time was set to 0.20 seconds, gain set to 160, and read height set at 6 mm. All experiments were performed in triplicate on the plate, and at least in one separate technical duplicate was performed.
MEK4 selectivity was performed in the same manner with activated MEK4 (Carna Biosciences). Here, p-38α was employed as the kinase substrate in lieu of JNK1 due to the availability of reagents. […] To probe the ATP-competitive nature of 25, this compound was subjected to a similar assay forgoing the 30 minute incubation time described above (STAR Protocols 2021, 2, 100717). The results are tabulated below in compound characterization. Potency determined by duplicate of triplicates corresponded to a IC50 value, which is in line with the ratio difference observed among other covalent inhibitors (for examples, see Cell Chem. Biol. 2020, 27, 1285).

[1] = 30 min preincubation, overall value of two experiments, read-out: MEK7 IC50
[2] = MEK7 IC50, first experiment (IC50±SEM, n=3), 30 min preincubation, first value in brackets
[3] = MEK7 IC50, second experiment (IC50±SEM, n=3), 30 min preincubation, second value in brackets
[4] = 30 min preincubation, read-out: MEK7 IC50
[5] = read-out: MEK7 IC50, second experiment (IC50±SEM, n=3), 30 min preincubation, second value in brackets
[6] = 30 min preincubation, first value in brackets

CC=CC(=O)Nc1cccc(Oc2cc(NC)ncn2)c1 (mixture of isomers) [Compound 10, (E/Z)—N-(3-((6-(methylamino)pyrimidin-4-yl)oxy)phenyl) but-2-enamide]
IC50 [1]: > 80 µM
in vitro activity against MAP2K7, in words: less potent

O=C(CCl)Nc1cccc(Oc2cc(NCc3ccccc3C(F)(F)F)ncn2)c1 [Compound 30, 2-chloro-N-(3-((6-((2-(trifluoromethyl)benzyl)amino)pyrimidin-4-yl)oxy)phenyl)acetamide]
IC50 [1]: 1.2 µM
in vitro activity against MAP2K7, in words: towards the micromolar range
IC50 [2]: 1.1 ± 0.48 µM
IC50 [3]: 1.3 ± 0.55 µM

O=C(CCl)Nc1cccc(Oc2cc(NC3CCCC3)ncn2)c1 [Compound 16, 2-chloro-N-(3-((6-(cyclopentylamino)pyrimidin-4-yl)oxy)phenyl)acetamide]
IC50 [1]: 0.27 µM
IC50 [2]: 0.35 ± 0.15 µM
IC50 [3]: 0.19 ± 0.19 µM

O=C(CCl)Nc1cccc(Oc2cc(NCc3ccc(F)c(F)c3)ncn2)c1 [Compound 29, 2-chloro-N-(3-((6-((3,4-difluorobenzyl)amino)pyrimidin-4-yl)oxy)phenyl)acetamide]
IC50 [1]: 0.042 µM
IC50 [4]: 0.042 µM
IC50 (read-out: MEK7 IC50, first experiment (IC50±SEM, n=3), 30 min preincubation, first value in brackets): 0.042 ± 0.036 µM
IC50 [5]: 0.042 ± 0.058 µM

O=C(CCl)Nc1cccc(Oc2cc(NCCc3ccc(F)cc3)ncn2)c1 [Compound 20, 2-chloro-N-(3-((6-((4-fluorophenethyl)amino)pyrimidin-4-yl)oxy)phenyl)acetamide]
IC50 [1]: 1.2 µM
IC50 [2]: 0.71 ± 0.4 µM
IC50 [3]: 1.6 ± 1.8 µM

COc1ccc(CCNc2cc(Oc3cccc(NC(=O)CCl)c3)ncn2)cc1 [Compound 21, 2-chloro-N-(3-((6-((4-methoxyphenethyl)amino)pyrimidin-4-yl)oxy)phenyl)acetamide]
IC50 [1]: 0.93 µM
IC50 [2]: 1.2 ± 0.33 µM
IC50 [3]: 0.66 ± 0.31 µM

COc1ccc(CNc2cc(Oc3cccc(NC(=O)CCl)c3)ncn2)cc1OC [Compound 35, 2-chloro-N-(3-((6-((3,4-dimethoxybenzyl)amino)pyrimidin-4-yl)oxy)phenyl)acetamide]
IC50 [1]: 0.26 µM
IC50 [2]: 0.39 ± 0.73 µM
IC50 [3]: 0.12 µM

O=C(CCl)Nc1cccc(Oc2cc(NCc3c(F)ccc(F)c3F)ncn2)c1 [Compound 28, 2-chloro-N-(3-((6-((2,3,6-trifluorobenzyl)amino)pyrimidin-4-yl)oxy)phenyl)acetamide]
IC50 [1]: 0.11 µM
IC50 [2]: 0.88 ± 0.029 µM
IC50 [3]: 0.14 ± 0.044 µM

CN(Cc1ccccc1)c1cc(Oc2cccc(NC(=O)CCl)c2)ncn1 [Compound 24, N-(3-((6-(benzyl(methyl)amino)pyrimidin-4-yl)oxy)phenyl)-2-chloroacetamide]
IC50 [1]: 0.11 µM
in vitro activity against MAP2K7, in words: ten-fold attenuation
IC50 [2]: 0.14 ± 0.087 µM
IC50 [3]: 0.087 ± 0.042 µM

C=CC(=O)Nc1ccc(Oc2cc(NC)ncn2)cc1 [Compound 7, N-(4-((6-(methylamino)pyrimidin-4-yl)oxy)phenyl) acrylamide]
IC50 [1]: 8.8 µM
IC50 [4]: 0.06 µM
in vitro activity against MAP2K7, in words: less active than compound 8
IC50 [2]: 7.7 ± 1.3 µM
IC50 [3]: 9.9 ± 1.2 µM

CNc1cc(Oc2ccc(NC(=O)CCl)cc2)ncn1 [Compound 6, 2-chloro-N-(4-((6-(methylamino)pyrimidin-4-yl)oxy)phenyl)acetamide]
IC50 [1]: 1.8 µM
in vitro activity against MAP2K7, in words: less active than compound 8
IC50 [2]: 1.5 ± 0.21 µM
IC50 [3]: 2.1 ± 1.1 µM

O=C(CCl)Nc1cccc(Oc2cc(N3CCOCC3)ncn2)c1 [Compound 14, 2-chloro-N-(3-((6-morpholinopyrimidin-4-yl)oxy)phenyl)acetamide]
MEK7 IC50, first experiment (IC50±SEM, n=3) [6]: 1.3 ± 3.4 µM

CNc1cc(Oc2cccc(NC(=O)COC)c2)ncn1 [Compound 13, 2-methoxy-N-(3-((6-(methylamino)pyrimidin-4-yl)oxy)phenyl)acetamide]
in vitro activity against MAP2K7, in words: attenuated activity

CNc1cc(Oc2cccc(NC(=O)CF)c2)ncn1 [Compound 12, 2-fluoro-N-(3-((6-(methylamino)pyrimidin-4-yl)oxy)phenyl)acetamide]
IC50 [6]: 7.7 ± 20 µM
IC50 [1]: 7.8 µM
in vitro activity against MAP2K7, in words: attenuated activity
IC50 [5]: 7.8 ± 5 µM

CNc1cc(Oc2cccc(NC(=O)C(C)(C)CCl)c2)ncn1 [Compound 11, 3-chloro-2,2-dimethyl-N-(3-((6-(methylamino)pyrimidin-4-yl)oxy)phenyl) propenamide]
in vitro activity against MAP2K7, in words: less potent

COc1ccccc1CNc1cc(Oc2cccc(NC(=O)CCl)c2)ncn1 [Compound 32, 2-chloro-N-(3-((6-((2-methoxybenzyl)amino)pyrimidin-4-yl)oxy)phenyl)acetamide]
IC50 [1]: 0.8 µM
in vitro activity against MAP2K7, in words: towards the micromolar range
IC50 [2]: 0.59 ± 0.15 µM
IC50 [3]: 1 ± 0.22 µM

Cc1ccc(CNc2cc(Oc3cccc(NC(=O)CCl)c3)ncn2)cc1 [Compound 36, 2-chloro-N-(3-((6-((4-methylbenzyl)amino)pyrimidin-4-yl)oxy)phenyl)acetamide]
IC50 [1]: 0.36 µM
IC50 [2]: 0.42 ± 0.32 µM
IC50 [3]: 0.3 ± 0.15 µM

O=C(CCl)Nc1cccc(Oc2cc(NCCc3ccc(Cl)cc3)ncn2)c1 [Compound 19, 2-chloro-N-(3-((6-((4-chlorophenethyl)amino)pyrimidin-4-yl)oxy)phenyl)acetamide]
IC50 [1]: 0.066 µM
in vitro activity against MAP2K7, in words: greatest potency
IC50 [2]: 0.053 µM
IC50 [3]: 0.078 ± 0.091 µM

O=C(CCl)Nc1cccc(Oc2cc(NCCc3c[nH]c4ccccc34)ncn2)c1 [Compound 15, N-(3-((6-((2-(1H-indol-3-yl)ethyl)amino)pyrimidin-4-yl)oxy)phenyl)-2-chloroacetamide]
IC50 [1]: 0.26 µM
in vitro activity against MAP2K7, in words: greatest potency
IC50 [2]: 0.3 ± 0.092 µM
IC50 [3]: 0.21 ± 0.18 µM

O=C(CCl)Nc1cccc(Oc2cc(NCCc3ccc4c(c3)OCO4)ncn2)c1 [Compound 23, N-(3-((6-((2-(benzo[d][1,3]dioxol-5-yl)ethyl)amino)pyrimidin-4-yl)oxy)phenyl)-2-chloroacetamide]
IC50 [1]: 1.1 µM
IC50 [2]: 1.4 ± 0.81 µM
IC50 [3]: 0.83 ± 0.68 µM

O=C(CCl)Nc1cccc(Oc2cc(NCc3ccc(F)c(C(F)(F)F)c3)ncn2)c1 [Compound 31, 2-chloro-N-(3-((6-((4-fluoro-3-(trifluoromethyl)benzyl)amino)pyrimidin-4-yl)oxy)phenyl)acetamide]
IC50 [1]: 3 µM
IC50 [2]: 4.2 ± 2.5 µM
IC50 [3]: 1.8 ± 1.2 µM

O=C(CCl)Nc1cccc(Oc2cc(NCc3ccc(F)cc3F)ncn2)c1 [Compound 27, 2-chloro-N-(3-((6-((2,4-difluorobenzyl)amino)pyrimidin-4-yl)oxy)phenyl)acetamide]
IC50 [1]: 0.36 µM
IC50 [2]: 0.14 µM
IC50 [3]: 0.58 ± 0.2 µM

COc1ccc(CCNc2cc(Oc3cccc(NC(=O)CCl)c3)ncn2)cc1OC [Compound 22, 2-chloro-N-(3-((6-((3,4-dimethoxyphenethyl)amino)pyrimidin-4-yl)oxy)phenyl)acetamide]
IC50 [1]: 1.7 µM
IC50 [2]: 1.9 ± 0.55 µM
IC50 [3]: 1.4 ± 0.97 µM

O=C(CCl)Nc1cccc(Oc2cc(NCc3ccc(C(F)(F)F)cc3)ncn2)c1 [Compound 37, 2-chloro-N-(3-((6-((4-(trifluoromethyl)benzyl)amino)pyrimidin-4-yl)oxy)phenyl)acetamide]
IC50 [1]: 0.41 µM
IC50 [2]: 0.2 ± 0.41 µM
IC50 [3]: 0.64 ± 0.27 µM

O=C(CCl)Nc1cccc(Oc2cc(NCCc3ccccc3)ncn2)c1 [Compound 18]
IC50 [1]: 1.2 µM
IC50 [2]: 0.73 ± 0.22 µM
IC50 [3]: 1.7 µM

O=C(CCl)Nc1cccc(Oc2cc(NCc3cc(C(F)(F)F)cc(C(F)(F)F)c3)ncn2)c1 [Compound 33, N-(3-((6-((3,5-bis(trifluoromethyl)benzyl)amino)pyrimidin-4-yl)oxy)phenyl)-2-chloroacetamide]
IC50 [2]: 4 ± 4.4 µM
IC50 [3]: 8.5 ± 9.8 µM
